Like-named read-outs stand apart in the source and are kept apart here.

One may read the IC50 as the concentration needed to halve the response being measured. What is called EC50 is the concentration that produces a half-maximal response. Lower therefore signals greater potency.

Assay [1] concerns the target p300 HAT domain (residues 1287-1666) (Homo sapiens (Human), UniProt Q09472). Nature of the assay: p300 HAT SPA assay (scintillation proximity assay, acetylation of biotinylated H3(1-21) peptide). Type of assay: biochemical. The following applies: average of at least 2 replicate titrations. In short, it runs like this:
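Purified p300 HAT domain reaction transferred to streptavidin plates to capture biotinylated H3(1-21) peptide, incubated 1.5 hr at RT, and read by scintillation proximity. IC50 values derived from concentration-response data.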
For orientation: SPA uses beads or plates that emit light when radiolabelled molecules are held near them.

Assay [2] concerns acetylation of chromatin at H3K18 (catalyzed by p300 and CBP) in HCT-116 cells. The experiment in a line: H3K18Ac MSD cellular assay. Type of assay: cell-based. To be noted: 2 hr treatment, average of at least 2 replicate titrations. On the procedure: Select compounds were also evaluated in a H3K18Ac MSD cellular assay that measures the ability of compounds to inhibit the acetylation of chromatin at H3K18, a process catalyzed by p300 and CBP. In a typical experiment the p300 HAT inhibitory activity inside cells of the compounds described herein was determined in accordance with the following experimental method. 20 k HCT-116 cells per well are plated in 75 μL RPMI+10% FBS media the night before treatment. Compounds plated in DMSO at 4× final concentration are resuspended in 30 μL RPMI+10% FBS, then 25 μL is combined with corresponding wells containing cells. Treated cells are incubated for 2 hr at 37° C., then lysed in 500 μL final volume and frozen at −80° C. MSD plates (Meso Scale Discovery) are coated overnight at 4° C. with 60 μL 1:500α-total histone antibody (Millipore MAB3422) in PBS. Plates are then blocked with 5% BSA in TBST shaking at RT for 1 hr, washed, and 30 μL lysate added to each well for 2 hr shaking at RT. Plates are washed and 25 μL 1:216α-H3K18ac antibody (CST 9675) in PBS added, then incubated for 1 hr shaking at RT. Plates are washed again, then 25 μL 1:1000 Sulfo-Tag goat a-rabbit antibody (Meso Scale Discovery R32Ab-1) in PBS is added for 1 hr shaking at RT. Plates are washed once more, then 150 μL 1× Read Buffer (MSD #R92TD-3) is added to all wells and read on MSD SECTOR Imager 2400 using the conventional read setup.

The mark [3] stands for this setting: p300 HAT domain, read-out: P300 HAT SPA IC50.
[4] abbreviates: P300 HAT SPA IC50, p300 HAT domain.

Sequence of p300 HAT domain (residues 1287-1666) (Q09472 1287-1666): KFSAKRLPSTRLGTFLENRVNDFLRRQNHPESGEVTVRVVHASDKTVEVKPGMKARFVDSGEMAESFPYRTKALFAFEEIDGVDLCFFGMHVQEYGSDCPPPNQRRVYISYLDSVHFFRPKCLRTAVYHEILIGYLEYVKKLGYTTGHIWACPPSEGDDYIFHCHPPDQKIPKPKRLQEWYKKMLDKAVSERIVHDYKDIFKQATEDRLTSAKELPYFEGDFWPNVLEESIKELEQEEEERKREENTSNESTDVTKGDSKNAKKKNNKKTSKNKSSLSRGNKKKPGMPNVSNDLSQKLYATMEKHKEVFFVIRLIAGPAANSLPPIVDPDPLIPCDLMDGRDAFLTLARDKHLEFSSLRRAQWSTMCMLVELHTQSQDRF

Consider `Cn1cc(-c2ccc3c(C(=O)C(NCCc4ccc(F)cc4F)c4ccccc4)c[nH]c3c2)cn1` (single isomer, unassigned) [85 Isomer 2], for which the IC50 in assay [1] (setting [3]) is 826 nM. In assay [2] (Homo sapiens, HCT-116, 2 h), this compound came in with an EC50 of 92.6 nM.
On the same counts, the results for `CCn1cc(-c2ccc3c(C(=O)C(NCCc4ccc(Cl)cc4)c4ccccc4)c[nH]c3c2)cn1` (single isomer, unassigned) [86 Isomer 2] are 332 nM and 116 nM.
The compound `Cn1cc(-c2ccc3c(C(=O)C(NCCc4ccc(C#N)cc4)c4ccccc4)c[nH]c3c2)cn1` (single isomer, unassigned) [84 Isomer 2] had an EC50 in assay [2] (Homo sapiens, HCT-116, 2 h) of 37.5 nM.
With `CC(=O)N1CCC(c2ccc3c(C(=O)C(NCCc4ccc(Cl)cc4)c4ccccc4)c[nH]c3c2)CC1` (single isomer, unassigned) [65 Isomer 2], the IC50 in assay [1] (setting [3]) was found to be 422 nM. Also, the EC50 in assay [2] (Homo sapiens, HCT-116, 2 h) amounted to 71.7 nM.
Compound `Cn1cc(-c2ccc3c(C(=O)C(NCCc4ccc(C#N)cc4)c4ccccc4)cnn3c2)cn1` (single isomer, unassigned) [79 Isomer 2] returned an EC50 in assay [2] of 60 nM.
In assay [2], `Cn1cc(-c2ccc3c(C(=O)C(NCCc4ccc(C#N)cc4)c4ccccc4)cnn3c2)cn1` (single isomer, unassigned) [79 Isomer 1] registered an EC50 of 366 nM.
Consider `O=C(c1c[nH]c2ccccc12)C(NCCc1ccc(Cl)nc1)c1ccccc1` (single isomer, unassigned) [52 Isomer 1], for which, in assay [1] (setting [3]), the IC50 was 15200 nM.
The same measure, in the same setting: the value for `CCN1CC(NC(=O)c2ccc3c(C(=O)C(NCCc4ccc(C#N)cc4)c4ccccc4)c[nH]c3c2)C1` (single isomer, unassigned) [163 Isomer 1] was 2840 nM.
For `O=C(c1c[nH]c2ccccc12)C(NCCc1ccc(C(F)(F)F)cc1)c1ccccc1` (single isomer, unassigned) [21 Isomer 2], in assay [1] (setting [3]), the IC50 came to 32800 nM.
The same measure, in the same setting: the value for `CCN(CC)C(=O)c1ccc2c(C(=O)C(NCCc3ccc(C#N)cc3)c3ccccc3)c[nH]c2c1` (single isomer, unassigned) [165 Isomer 1] was 4330 nM; that for `CN(C)C(=O)c1cccc2c(C(=O)C(NCCc3ccc(Cl)cc3Cl)c3ccccc3)c[nH]c12` (single isomer, unassigned) [148 Isomer 1] was more than 30000 nM.
Same read-out and setting: the value for `Cn1cc(-c2ccc3c(C(=O)[C@@H](NCCc4ccc(N)nc4)c4ccccc4)c[nH]c3c2)cn1` (single isomer, unassigned) [187 Isomer 2] was 793 nM.
Turning to `O=C(c1c[nH]c2ccccc12)[C@@H](NCCc1ccc(-c2nnc[nH]2)cc1)c1ccccc1` (single isomer, unassigned) [186 Isomer 2], the IC50 in assay [1] (setting [3]) stood at 3540 nM.
The same measure, in the same setting: to `C[C@@H](NC(=O)c1ccc2c(C(=O)C(NCCc3ccc(C#N)cc3)c3ccccc3)c[nH]c2c1)C(F)(F)F` (single isomer, unassigned) [170 Isomer 2] belongs 4110 nM; to `Cn1cc(-c2ccc3c(C(=O)C(NCCc4ccc(C#N)cc4Cl)c4ccccc4)c[nH]c3c2)cn1` (single isomer, unassigned) [72 Isomer 1], 733 nM.
Turning to `CC(=O)N1CCC(c2ccc3c(C(=O)C(NCCc4ccc(Cl)cc4)c4ccccc4)c[nH]c3c2)CC1` (single isomer, unassigned) [65 Isomer 1], the concentration for half-maximal inhibition (IC50) in assay [1] (setting [3]) is more than 30000 nM.
Same read-out and setting: to `Cc1ccc2c(C(=O)C(NCCc3ccc(F)cc3)c3ccccc3)c[nH]c2c1` (single isomer, unassigned) [48 Isomer 1] belongs more than 60000 nM; to `Cn1cc(-c2ccc3c(C(=O)C(NCCc4ccc(F)cc4F)c4ccccc4)c[nH]c3c2)cn1` (single isomer, unassigned) [85 Isomer 1], more than 30000 nM; to `O=C(c1c[nH]c2ccccc12)C(NCCc1ccc(Cl)cc1)C1CCCC1` (single isomer, unassigned) [25 Isomer 2], more than 60000 nM.
`Cn1cc(CCNC(C(=O)c2c[nH]c3ccccc23)c2ccccc2)cn1` (single isomer, unassigned) [35 Isomer 1]: the IC50 in assay [1] (setting [3]) was found to be 39800 nM.
With `CCn1cc(C(=O)C(NCCc2ccc(Cl)cc2)c2ccccc2)c2ccccc21` (single isomer, unassigned) [129 Isomer 2], 1810 nM corresponded to half-maximal inhibition in assay [1] (setting [4]) (IC50).
As to `Cn1cc(-c2ccc3c(C(=O)C(NCCc4ccc(S(N)(=O)=O)cc4)c4ccccc4)c[nH]c3c2)nn1` (single isomer, unassigned) [116 Isomer 1], in assay [1] (setting [3]), the IC50 is more than 5000 nM.
Regarding `CCNC(=O)c1ccc2c(C(=O)C(C)NCCc3ccc(C#N)cc3)c[nH]c2c1` (single isomer, unassigned) [76 Isomer 1], the IC50 in assay [1] (setting [3]) is more than 5000 nM.
The same measure, in the same setting: the value for `CNC(=O)c1ccc(CCN[C@H](C(=O)c2c[nH]c3cc(-c4cnn(C)c4)ccc23)c2ccccc2)cc1` (single isomer, unassigned) [131 Isomer 1] was more than 30000 nM.
Still for that read-out and setting: to `CN(C)C(=O)Cc1ccc(CCNC(C(=O)c2c[nH]c3ccccc23)c2ccccc2)cc1` (single isomer, unassigned) [137 Isomer 2] belongs more than 60000 nM; to `O=C(c1c[nH]c2ccccc12)C(NCCn1ccnc1)c1ccccc1` (single isomer, unassigned) [36 Isomer 1], more than 60000 nM; to `CC(CNC(C(=O)c1cnn2cc(C(=O)NC[C@@H](C)O)ccc12)c1ccccc1)c1ccc(C#N)cc1` (single isomer, unassigned) [70 Isomer 3], 747 nM.
Turning to `N#Cc1ccc(CCNC(C(=O)c2cnn3cc(-c4cn[nH]c4)ccc23)c2ccccc2)cc1` (single isomer, unassigned) [99 Isomer 1], the half-inhibitory concentration (IC50) in assay [1] (setting [3]) came out at 212 nM.
Still for that read-out and setting: the value for `N#Cc1ccc(CCNC(C(=O)c2c[nH]c3cc(-c4cn[nH]c4)ccc23)c2ccccc2)cc1` (single isomer, unassigned) [98 Isomer 1] was 493 nM; that for `O=C(c1c[nH]c2ccccc12)[C@@H](NCCc1ccc(-c2nnc[nH]2)cc1)c1ccccc1` (single isomer, unassigned) [186 Isomer 1] was 1970 nM.
On the same count and under the same terms, to `Cc1nc(C(=O)C(NCCc2ccc(C(N)=O)cc2)c2ccccc2)c2ccc(-c3cnn(C)c3)cn12` (single isomer, unassigned) [184 Isomer 1] belongs 672 nM.
Regarding `COCCn1cc(C(=O)C(NCCc2ccc(Cl)cc2)c2ccccc2)c2ccccc21` (single isomer, unassigned) [127 Isomer 1], in assay [1] (setting [4]), the IC50 is more than 60000 nM.
Take `CCNC(=O)c1ccc2c(C(=O)C(NCC(C)c3ccc(C#N)cc3)c3ccccc3)cnn2c1` (single isomer, unassigned) [69 Isomer 3]: the IC50 in assay [1] (setting [3]) was more than 5000 nM.
Same read-out and setting: the value for `CC(C)(O)CNC(=O)c1ccc2c(C(=O)C(NCCc3ccc(C#N)cc3)c3ccccc3)c[nH]c2c1` (single isomer, unassigned) [161 Isomer 1] was 3350 nM; that for `Cn1cc(-c2ccc3c(C(=O)C(NCCc4ccc(Cl)cc4)c4ccccc4)c[nH]c3c2)nn1` (single isomer, unassigned) [104 Isomer 2] was 388 nM; that for `N#Cc1ccc(CCNC(C(=O)c2c[nH]c3ccccc23)c2ccccc2)cc1` (single isomer, unassigned) [58 Isomer 1] was 25300 nM.
The same measure, in the same setting: the value for `O=C(c1c[nH]c2cc(-c3cccnc3)ccc12)C(NCCc1ccc(Cl)cc1)c1ccccc1` (single isomer, unassigned) [90 Isomer 1] was 967 nM; that for `COCCn1cc(-c2ccc3c(C(=O)C(NCCc4ccc(C#N)cc4)c4ccccc4)c[nH]c3c2)cn1` (single isomer, unassigned) [96 Isomer 1] was 182 nM; that for `O=C(c1c[nH]c2ccccc12)C(NCCc1ccc(Cl)cc1)c1ccccc1` (single isomer, unassigned) [5 Isomer 2] was 867 nM.
The same measure, in the same setting: to `CNC(=O)c1ccc2c(C(=O)C(NCCc3ccc(C#N)cc3)c3ccccc3)c[nH]c2n1` (single isomer, unassigned) [67 Isomer 1] belongs 2360 nM; to `Cn1cc(-c2ccc3c(C(=O)C(NCCc4ccc(C(N)=O)cc4)c4ccccc4)c[nH]c3c2)nn1` (single isomer, unassigned) [180 Isomer 1], 4330 nM; to `Cn1cc(-c2ccc3c(C(=O)C(NCCc4ccc(C#N)cc4)c4ccccc4)c[nH]c3c2F)cn1` (single isomer, unassigned) [103 Isomer 1], 3410 nM.
In the case of `O=C(c1c[nH]c2ccccc12)C(NCCc1cccc(Cl)c1)c1ccccc1` (single isomer, unassigned) [4 Isomer 1], the IC50 in assay [1] (setting [3]) is more than 60000 nM.
As for `N#Cc1ccc(CCNC(C(=O)c2c[nH]c3cc(C(=O)NC4CN(CC(F)(F)F)C4)ccc23)c2ccccc2)cc1` (single isomer, unassigned) [162 Isomer 2], the IC50 in assay [1] (setting [3]) worked out at 135 nM.
With `N#Cc1ccc(CCNC(C(=O)c2c[nH]c3cc(N4CCCC4)ccc23)c2ccccc2)cc1` (single isomer, unassigned) [125 Isomer 1], in assay [1] (setting [3]), the IC50 is more than 2000 nM.

The values above are taken from US11414384B2, “P300/CBP hat inhibitors” (Constellation Pharmaceuticals, Inc., priority 2018, dated 2022).
